Measurements from US20050267020A1, “Polypeptides derived from inducible hsp70 and pharmaceutical compositions containing the same” (priority 2001, published 2005).

What was measured:
[1] = biological target: T1, HLA-A*0201 (Homo sapiens, UniProt P04439, D140Y/D185E/D98H/E176V/E277Q/G131W/G231S/I119V/I121R/I166T/I218V/L300P/L318F/N151K/N90K/P208A/P217A/Q86G/Q94H/R138H/R169H/T345S); assay: Measurement of peptide relative affinity to HLA-A*0201 on T2 cells; assay type: binding; conditions: HLA-A*0201, T2 cells; ratio to reference peptide HIVpol 589; the lower the RA-value, the stronger the binding
T1 construct: Tap−/− cells expressing the studied HLA-class I molecule; endogenous in cells; host or cells: T2 cells (Tap-/-, HLA-A*0201)
Protocol: Measurement of Peptide Relative Affinity to HLA class I. Tap−/− cells expressing the studied HLA-class I molecule (3×10^5 cells/mL) were incubated with various concentrations of peptides ranging from 100 μM to 0.1 μM in serum-free RPMI 1640 medium supplemented with 100 ng/ml of human β-2m at 37° C. for 16 hours. Cells were then washed twice and stained with the specific anti-class I mAb followed by FITC conjugated goat anti mouse Ig mAb to quantify the expression of HLA-A*0201. For each peptide concentration, the HLA-specific staining was calculated as the % of the staining obtained with 100 μM of the reference peptide. The relative affinity (RA) is determined as: RA=(Concentration of each peptide that induces 20% of HLA expression/Concentration of the reference peptide that induces 20% of HLA expression). The lower the RA-value, the stronger is the peptide binding to HLA. The mean RA value for each peptide is determined from at least three independent experiments. […]
(§1) The affinity of each peptide was assayed experimentally by determination of the Relative Affinity: the necessary peptide dose to stabilise a reference quantity of HLA-A*0201 molecules at the surface of T2 cells; and the stability of each peptide was assayed by determination of the half-life of the peptide/HLA-A*0201 molecule complex (DC50: dissociation complex 50).

[2] = tested on: human CD8+ cells; assay: Generation of CTL from human PBMC with peptide- or polyepitope-pulsed dendritic cells, intracellular IFN-γ staining; assay type: cell-based; conditions: human PBMC; multiple restimulations of CD8+ cells; T2 cells loaded with p380, p391 or p393
Protocol: The three graphs entitled hCTL380, hCTL391 and hCTL393 represent respectively the testing of p380, p391 and p393-specific human CTLs. P391 and p393 specific CTLs were tested towards EBV-B cells, whereas p380 specific CTLs were tested towards T2 cells. The number of IFN-γ producing CD8+ cells for 10^5 CD8+ cells upon activation, indicated on the X-axis, was measured, as assessed by staining cells for CD8 and intracellular IFN-γ.
Polyepitope induced human CTL were tested for their capacity to respond to T2 cells loaded with p380, p391 or p393 or the irrelevant HIVpol589 peptides in intracellular IFN-γ staining. The X axis represents the number of IFNγ-producing CTL/10^5 CD8+ cells. On the Y axis, upper to lower bars represent the results obtained when cells were loaded respectively with irrelevant HIV pol589 peptides, or with p380, p391 or p393 peptides.
Generation of CTL from Human Peripheral Blood Mononuclear Cells (PBMC). Fresh PBMC collected from healthy donnors under informed consent were serologically typed for the studied HLA-class I molecule, and purified using standard Ficoll-Paque (Amersham Pharmacia Biotech AB). Dendritic cells (DC) were prepared by cultivating plastic adherent PBMC in the presence of 500 U/mL GM-CSF (R&D Systems Inc. MN) and 500 U/mL IL-4 (R&D Systems Inc. MN) for 7 days such as described in Keogh et al. (30).
DC were then maturated for 2 days with 2 μg/mL anti-CD40 antibody and 100 ng/mL Poly I:C (Sigma-Aldrich). […] Autologous CD8+ purified T-cells (CD8 MicroBeads, Miltneyi Biotec Inc. CA) were stimulated weekly with DC pulsed for two hours with peptide (10 μM) and irradiated at 35Gy at a T:DC ratio of 10:1 in culture medium (CM; RPMI 1640 supplemented with 10% human AB serum, […] L-glutamine and gentamycin). 1×10^3 U/mL IL-6 and SU/mL IL-12 (R&D Systems Inc. MN) were added during the first week of culture. 20 U/mL clinical grade IL-2 (Proleukin, Chiron Corp.) and 10 ng/mL IL-7 (R&D Systems Inc. MN) were added during the next two weeks of culture. 7 days after the last stimulation with DC, peptide specific IFN-γ secreting CD8+ T cells were magnetically sorted following encounter of the peptide presented by HLA-A*0201+ B-EBV cells (IFN-γ Secretion Assay, Miltenyi Biotec Inc. CA). The characterization of peptide-specific T cells was tested 7 days after the purification step.
Intracellular IFN-g Staining. 5×10^4 T cells were incubated with 10^5 stimulating peptide loaded EBV-B cells or with 10^5 tumor cells in the presence of 20 μg/ml brefeldin-A (Sigma, Oakville, Canada). Six hours later, they were washed, stained with r-phycoerythrin-conjugated anti-CD8 antibody (Caltag Laboratories, Burlingame, Calif.) in PBS for 25 min at 4° C., washed and fixed with 4% PFA. Then, cells were permeabilized with PBS 0.5% BSA 0.2% saponin (Sigma, Oakville, Canada), and stained with allophycocyanin-conjugated anti-IFNg mAb (PharMingen, Mississauga, Canada) for 25 min at 4° C. Cells were analyzed on FACSCalibur (Becton Dickinson, Mountain View, Calif.).

[3] = tested on: HHD mice; assay: Vaccination of HHD mice, ex vivo IFN-γ ELISPOT assay; assay type: in vivo, mouse
Text: Immune responses were monitored ex vivo in an IFN-γ Elispot assay. The X axis represents the percentage of immunized mice responding to the different epitopes.
The 8 graphs represent the immune responses obtained for each of the immunized mice with the 22-mer epitope. The X axis represents the number of IFN-γ producing CTLs for 10^5 ex vivo CD8+ cells upon activation. On the Y axis, the bars represent the respective level of IFN-γ producing CTLs against p391 or p393 peptide or against irrelevant HIV pol589 peptides.
Generation of CTL in HLA-transgenic mice. HLA-transgenic mice were injected subcutaneously at the base of the tail with 100 μg of peptide emulsified in incomplete Freund's adjuvant (IFA) in the presence of 140 μg of the I-A^b restricted HBVcore-derived T-helper epitope (128-140; sequence TPPAYRPPNAPIL). After 11 days, spleen cells (5×10^7 cells in 10 mL) were stimulated in vitro with peptide (10 μM). […]
ELISPOT Assay. The ELISPOT assay was used to quantify peptide epitope-specific, IFN-γ-releasing effector cells. […] The spots were counted using an automated image analysis system ELISPOT Reader (A/D Strassberg, Germany). The peptide-specific IFN-γ secreting cells frequency could be calculated from the numbers of spot-forming cells and from the CD8+ frequency in the studied lymphocyte population, adressed by immunostaining with an anti-CD8 mAb (clone 3B5; Caltag Laboratories, CA).

[4] = biological target: T2, HLA-A*0201/peptide complex (Homo sapiens, UniProt P04439, D140Y/D185E/D98H/E176V/E277Q/G131W/G231S/I119V/I121R/I166T/I218V/L300P/L318F/N151K/N90K/P208A/P217A/Q86G/Q94H/R138H/R169H/T345S); assay: Assessment of peptide/HLA class I complex stability (DC50); assay type: binding; conditions: half life (DC50) of the HLA-A*0201/peptide complex
T2 construct: Tap−/− cells expressing the studied HLA-class I molecule; endogenous in cells; host or cells: T2 cells (Tap-/-, HLA-A*0201)
Protocol: Assessment of Peptide/HLA class I Complex Stability. Tap−/− cells (10^6/mL) were incubated overnight with 100 μM of each peptide in serum-free RPMI 1640 medium supplemented with 100 ng/mL of […] at 37° C. Cells were then washed four times to remove free peptide, incubated with Brefeldin A (10 μg/mL) for 1 hour to block cell surface expression of newly synthesized HLA molecules, washed and incubated at 37° C. for 0, 2, 4 or 6 hours. Subsequently, cells were stained with the HLA specific mAb followed by FITC conjugated goat anti mouse Ig mAb. For each time point, peptide induced HLA expression was calculated as: Mean fluorescence of peptide preincubated cells—Mean fluorescence of cells treated in similar conditions in the absence of peptide. DC50 (dissociation complex; DC) was defined as the time required for the loss of 50% of the HLA-A*0201/peptide complexes stabilized at t=0.
as §1

Sequence: LIGRKFGDPV [HSP 73]
- Relative affinity [1]: >20

Sequence: LMGDKSENVQDLLLLDVAPLSL [22-mer polyepitope]
- specificity of human CTL lines induced with pulsed dendritic cells [2]: showed specificity towards all three Hsp70 epitopes
- mice responding after vaccination [3]: induced responses in most mice
- epitopes against which immune responses were raised after vaccination ([3]; HSP380, HSP391, HSP393 epitopes): induced immune responses against all three Hsp70 epitopes

Sequence: SLFEGIDFYT [HSP 286]
- Stability (hrs) [4]: >6 h hrs
